Some test systems named below: K562; SR; 786-0; SF-539; LOX IMVI; OVCAR-4; SW-620; HCT-116; HT-29; UACC-62; SF-295; IGROV-1; OVCAR-3; SK-MEL-28; NCI-H226; SNB-75; CAKI-1; HCC 2998.
Common to all, as to experiment: NCI tumour cell line growth inhibition, 48 h

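Cultured in 96-well plates, cells were exposed to test compound for 48 hours across five concentrations. GI50 marks 50% less growth.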 The source made the active and inactive calls. Rule as the data show it: active = GI50 up to about 1.1 µM and inactive = higher.

With `O=C1CCC2(c3ccc(F)cc3)Nc3cc(Cl)ccc3N12` (stereo not drawn), the GI50 in the experiment on K562 is 44.6 µM (inactive); in the experiment with SR, 43.4 µM (inactive); with 786-0, > 100 µM (inactive); in the experiment with SF-539 it was > 100 µM (inactive); in the experiment with LOX IMVI it was > 100 µM (inactive); in the experiment with OVCAR-4 it was 48.6 µM (inactive). The GI50 in the experiment with SW-620 was > 100 µM (inactive); with HCT-116, 67.8 µM (inactive); with HT-29 it was > 100 µM (inactive); in the experiment on UACC-62, 66.1 µM (inactive); in the experiment with SF-295, 60.5 µM (inactive); in the experiment on IGROV-1 it was > 100 µM (inactive). Besides, the GI50 in the experiment with OVCAR-3 was 86.5 µM (inactive); with SK-MEL-28 it was > 100 µM (inactive); in the experiment with NCI-H226, 38.5 µM (inactive); with SNB-75 it was > 100 µM (inactive).
Turning to `O=c1cc2n(c(=O)[nH]1)C1OC(C(O)C1O)[C@H]2CCO` (stereo partly drawn), the GI50 in the experiment with K562, in the experiment with SR, with 786-0, in the experiment on SF-539, with LOX IMVI and with CAKI-1 was > 100 µM (inactive) in each case. Also, the GI50 in the experiment with OVCAR-4, in the experiment on SW-620, in the experiment on HT-29, with UACC-62, in the experiment with SF-295 and with IGROV-1 was > 100 µM (inactive) throughout. Further, the GI50 in the experiment on SK-MEL-28 and with NCI-H226 was > 100 µM (inactive) throughout.
In the case of `CCC1CCC2CCCC(C)N12` (stereo not drawn), the GI50 in the experiment with K562, in the experiment with HCC 2998, in the experiment with SR, in the experiment on 786-0, with SF-539 and with CAKI-1 was > 100 µM (inactive) throughout. Also, the GI50 in the experiment with OVCAR-4, in the experiment with SW-620, with HCT-116, in the experiment on UACC-62, in the experiment on SF-295 and in the experiment on IGROV-1 was > 100 µM (inactive) throughout. In addition, the GI50 in the experiment with OVCAR-3, with SK-MEL-28, in the experiment with NCI-H226 and with SNB-75 was > 100 µM (inactive) in each case.
For `CC(C)/C=C1\CCC(CN2CCCC2)C1=O` (stereo not drawn), the GI50 in the experiment on K562 is 2.69 µM (inactive); with HCC 2998, 19.5 µM (inactive); with SR, 2.82 µM (inactive); in the experiment with 786-0 it was 2.01 µM (inactive); in the experiment with SF-539, 18.7 µM (inactive); with LOX IMVI, 19.9 µM (inactive). Moreover, the GI50 in the experiment with CAKI-1 was 5.16 µM (inactive); with OVCAR-4 it was 17.6 µM (inactive); in the experiment with SW-620, 2.44 µM (inactive); in the experiment with HCT-116 it was 8.97 µM (inactive); with HT-29 it was 9.73 µM (inactive); in the experiment with UACC-62, 20.6 µM (inactive). Besides, the GI50 in the experiment with SF-295 is 42.6 µM (inactive); with IGROV-1, 25.7 µM (inactive); in the experiment on OVCAR-3, 17.4 µM (inactive); in the experiment with SK-MEL-28, 17.5 µM (inactive); with NCI-H226 it was 20.9 µM (inactive).
As to `N#CC(/C(=N/NC(N)=S)C(=O)Nc1cccc(Cl)c1)c1ccccc1` (stereo not drawn), the GI50 in the experiment with K562, in the experiment with HCC 2998, in the experiment with SR, with 786-0, in the experiment on SF-539 and in the experiment with CAKI-1 was > 100 µM (inactive) throughout. Besides, the GI50 in the experiment with OVCAR-4, with SW-620, with HCT-116, in the experiment with HT-29, with UACC-62 and in the experiment with SF-295 was > 100 µM (inactive) in each case. Also, the GI50 is > 100 µM (inactive) with IGROV-1; > 100 µM (inactive) with OVCAR-3; > 100 µM (inactive) in the experiment with SK-MEL-28; > 100 µM (inactive) in the experiment on NCI-H226; 38.8 µM (inactive) with SNB-75.
In the case of `CCCCC1(C(NC(=O)c2ccccc2Cl)c2ccncc2)C(=O)N(c2ccccc2)N(c2ccccc2)C1=O` (stereo not drawn), the GI50 is 33.5 µM (inactive) in the experiment with K562; 57.5 µM (inactive) in the experiment with HCC 2998; 55.1 µM (inactive) in the experiment on SR; 83.4 µM (inactive) in the experiment with 786-0; 88.1 µM (inactive) in the experiment on SF-539; 56.9 µM (inactive) with LOX IMVI. Further, the GI50 in the experiment with SW-620 was 78.7 µM (inactive); in the experiment on HCT-116, 23.9 µM (inactive); in the experiment with HT-29 it was 41.6 µM (inactive); in the experiment with UACC-62 it was 69.5 µM (inactive); in the experiment on SF-295, 55.7 µM (inactive); in the experiment on IGROV-1 it was > 100 µM (inactive). The GI50 with OVCAR-3 is 60 µM (inactive); in the experiment on SK-MEL-28 it was > 100 µM (inactive); in the experiment on NCI-H226, 66.8 µM (inactive); with SNB-75, 12.4 µM (inactive).
Consider `Cc1cc2c(CC(=O)O)n[nH]c2c(C(=O)O)c1C`, for which the GI50 in the experiment on HCC 2998, in the experiment with SR, in the experiment on 786-0, in the experiment with SF-539, in the experiment with LOX IMVI and with SW-620 was > 100 µM (inactive) throughout. The GI50 with HCT-116, in the experiment with HT-29, in the experiment with UACC-62, in the experiment with SF-295, in the experiment on OVCAR-3 and with SK-MEL-28 was > 100 µM (inactive) throughout. The GI50 in the experiment on NCI-H226 and in the experiment with SNB-75 was > 100 µM (inactive) each time.
Consider `CCc1cccc(C)c1NC(=O)CCc1nnc(SC)o1`, for which the GI50 was > 100 µM (inactive) in the experiment with K562; > 100 µM (inactive) in the experiment with HCC 2998; 0.622 µM (active) in the experiment on SR; > 100 µM (inactive) in the experiment with 786-0; > 100 µM (inactive) in the experiment with SF-539; > 100 µM (inactive) with LOX IMVI. In addition, the GI50 in the experiment with CAKI-1, in the experiment on OVCAR-4, in the experiment on SW-620, in the experiment on HCT-116, with HT-29 and in the experiment with UACC-62 was > 100 µM (inactive) throughout. The GI50 is > 100 µM (inactive) in the experiment on SF-295; > 100 µM (inactive) in the experiment with IGROV-1; > 100 µM (inactive) with OVCAR-3; > 100 µM (inactive) with SK-MEL-28; > 79.4 µM (inactive) with SNB-75.
Turning to `O=C1Sc2ccccc2C(=O)N2CSCC12` (stereo not drawn), the GI50 in the experiment with K562, with HCC 2998, in the experiment with SR, with 786-0, with SF-539 and in the experiment with LOX IMVI was > 100 µM (inactive) throughout. The GI50 in the experiment on SW-620, in the experiment on HCT-116, with HT-29, with UACC-62, in the experiment on SF-295 and with IGROV-1 was > 100 µM (inactive) throughout. For the same molecule, the GI50 with OVCAR-3, with SK-MEL-28, in the experiment on NCI-H226 and in the experiment on SNB-75 was > 100 µM (inactive) in each case.

The record behind these values is ChEMBL document CHEMBL1201862, “PubChem BioAssay data set” (2004).
